The values below come from PMC6364417, “Kinase inhibitor library screening identifies synergistic drug combinations effective in sensitive and resistant melanoma cells” (Journal of Experimental & Clinical Cancer Research : CR, 2019).

Several values for one entry are separate records, joined by “and”; a condition that tells them apart may be missing. Equal values may be shown once. Read-outs that look alike come from different tables or passages of the source.

Common to all, as to test: Kinase inhibitor library screening, PrestoBlue cell viability, 1 or 10 μM, 72 h
Experiment [1] relates to 501Mel-XP cells (Vemurafenib-resistant).
Experiment [2] deals with A375-GP cells (Dabrafenib-resistant).
The subject of experiment [3] is IGR37-GP cells (Dabrafenib-resistant).
Experiment [4] relates to IGR37 cells (parental).
For experiment [5], the system named is 501Mel cells (parental). An outline of the steps: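 Sensitive parental cells and their resistant derivatives were exposed to library compounds for 72 h. Values represent viability as a percentage of untreated cells.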
The test system of experiment [6] is A375-XP cells (Vemurafenib-resistant).
In experiment [7] the test system is 501Mel-GP cells (Dabrafenib-resistant).
The test system of experiment [8] is A375 cells (parental).
The subject of experiment [9] is IGR37-XP cells (Vemurafenib-resistant).
Where [10] appears, read: IGR37 Parental, 1μΜ, 72 h, in %.
Where [11] appears, read: IGR37 Parental, 10μΜ, 72 h, in %.
[12] abbreviates: 501Mel Parental, 1μΜ, 72 h, in %.
Setting [13] is: 501Mel Parental, 10μΜ, 72 h, in %.

As for `COc1cc(Nc2ncc(F)c(Nc3ccc4c(n3)N(COP(=O)(O)O)C(=O)C(C)(C)O4)n2)cc(OC)c1OC` [R788 (Fostamatinib)], the “cell viability (kinase inhibitor library screening)” value in experiment [1] (501Mel XP, 1μΜ, in %) is listed as 82.4; in experiment [1] (501Mel XP, 10μΜ, in %) it was 25.1; in [2] (A375 GP, 1μΜ, in %), 89.5; in experiment [2] (A375 GP, 10μΜ, in %) it was 49.0; in experiment [3] (IGR37 GP, 1μΜ, in %), 87.5; in experiment [3] (IGR37 GP, 10μΜ, in %), 21.3. Besides, the “cell viability (kinase inhibitor library screening)” value came out at 99.8 in experiment [4] (IGR37 Parental, 1μΜ, in %); 77.8 in experiment [4] (IGR37 Parental, 10μΜ, in %); 98.5 in experiment [5] (501Mel Parental, 1μΜ, in %); 76.6 in [5] (501Mel Parental, 10μΜ, in %); 93.7 in experiment [6] (A375 XP, 1μΜ, in %); 63.9 in [6] (A375 XP, 10μΜ, in %). Further, the “cell viability (kinase inhibitor library screening)” value was 90.2 in experiment [7] (501Mel GP, 1μΜ, in %); 61.2 in experiment [7] (501Mel GP, 10μΜ, in %); 95.5 in [8] (A375 Parental, 1μΜ, in %); 47.5 in experiment [8] (A375 Parental, 10μΜ, in %); 89.9 in experiment [9] (IGR37 XP, 1μΜ, in %); 12.1 in experiment [9] (IGR37 XP, 10μΜ, in %).

As for `FC(F)(F)c1ccc(Nc2nc3ccc(Oc4ccnc(-c5ncc(C(F)(F)F)[nH]5)c4)cc3[nH]2)cc1` [Raf265 derivative], the “cell viability (kinase inhibitor library screening)” value turned out to be 116.2 in [1] (501Mel XP, 1μΜ, in %); 77.9 in [1] (501Mel XP, 10μΜ, in %); 97.7 in experiment [2] (A375 GP, 1μΜ, in %); 60.2 in experiment [2] (A375 GP, 10μΜ, in %); 94.6 in experiment [3] (IGR37 GP, 1μΜ, in %); 87.0 in experiment [3] (IGR37 GP, 10μΜ, in %). Besides, the “cell viability (kinase inhibitor library screening)” value is 104.0 in experiment [4] (IGR37 Parental, 1μΜ, in %); 102.6 in experiment [4] (IGR37 Parental, 10μΜ, in %); 91.6 in experiment [5] (501Mel Parental, 10μΜ, in %); 66.1 in experiment [6] (A375 XP, 10μΜ, in %); 88.7 in experiment [7] (501Mel GP, 10μΜ, in %); 104.6 in experiment [8] (A375 Parental, 1μΜ, in %). The “cell viability (kinase inhibitor library screening)” value in [8] (A375 Parental, 10μΜ, in %) is on record as 74.8; in [9] (IGR37 XP, 1μΜ, in %) it was 106.8; in [9] (IGR37 XP, 10μΜ, in %), 69.4.

For `CO[C@H]1C[C@@H]2CC[C@@H](C)[C@@](O)(O2)C(=O)C(=O)N2CCCC[C@H]2C(=O)O[C@H]([C@H](C)C[C@@H]2CC[C@@H](O)[C@H](OC)C2)CC(=O)[C@H](C)/C=C(\C)[C@@H](O)[C@@H](OC)C(=O)[C@H](C)C[C@H](C)/C=C/C=C/C=C/1C` [Rapamycin (Sirolimus)], in [1] (501Mel XP, 1μΜ, 72 h, in %), the “Cell viability in kinase inhibitor library screening, 501Mel XP, 1μΜ” value amounted to 56.7. For the same compound, in [1] (501Mel XP, 10μΜ, 72 h, in %), the “Cell viability in kinase inhibitor library screening, 501Mel XP, 10μΜ” value turned out to be 42.7. Further, the “Cell viability in kinase inhibitor library screening, A375 GP, 1μΜ” value in experiment [2] (A375 GP, 1μΜ, 72 h) was found to be 80.8. Moreover, the “Cell viability in kinase inhibitor library screening, A375 GP, 10μΜ” value in experiment [2] (A375 GP, 10μΜ, 72 h) is given as 79.4. The same compound yielded a Cell viability in kinase inhibitor library screening, IGR37 GP, 10μΜ in [3] (IGR37 GP, 10μΜ, 72 h) of 76.7%. In addition, the “Cell viability in kinase inhibitor library screening, IGR37 GP, 1μΜ” value in experiment [3] (IGR37 GP, 1μΜ, 72 h, in %) is on record as 92.2. Further, the “Cell viability in kinase inhibitor library screening, IGR37 Parental, 1μΜ” value in experiment [4] (setting [10]) came out at 79.9. The “Cell viability in kinase inhibitor library screening, IGR37 Parental, 10μΜ” value in experiment [4] (setting [11]) stood at 81.5. In addition, in experiment [5] (setting [12]), the “Cell viability in kinase inhibitor library screening, 501Mel Parental, 1μΜ” value was 84.7. For the same compound, the “Cell viability in kinase inhibitor library screening, 501Mel Parental, 10μΜ” value in experiment [5] (setting [13]) was determined as 77.5. Besides, the “Cell viability in kinase inhibitor library screening, A375 XP, 1μΜ” value in experiment [6] (A375 XP, 1μΜ, 72 h) is on record as 79.4. Also, the “Cell viability in kinase inhibitor library screening, A375 XP, 10μΜ” value in experiment [6] (A375 XP, 10μΜ, 72 h) turned out to be 83.3. Further, the “Cell viability in kinase inhibitor library screening, 501Mel GP, 1μΜ” value in [7] (501Mel GP, 1μΜ, 72 h, in %) was 69.9. In addition, the “Cell viability in kinase inhibitor library screening, 501Mel GP, 10μΜ” value in experiment [7] (501Mel GP, 10μΜ, 72 h, in %) stood at 59.4. The “Cell viability in kinase inhibitor library screening, A375 Parental, 10μΜ” value in experiment [8] (A375 Parental, 10μΜ, 72 h) was 72.3. In [8] (A375 Parental, 1μΜ, 72 h), the “Cell viability in kinase inhibitor library screening, A375 Parental, 1μΜ” value was 80.2. The compound also displayed a Cell viability in kinase inhibitor library screening, IGR37 XP, 10μΜ in experiment [9] (IGR37 XP, 10μΜ, 72 h) of 49.9%. For the same compound, the “Cell viability in kinase inhibitor library screening, IGR37 XP, 1μΜ” value in experiment [9] (IGR37 XP, 1μΜ, 72 h, in %) is 96.0.

Regarding `CNC(=O)c1cc(Oc2ccc(NC(=O)Nc3ccc(Cl)c(C(F)(F)F)c3)c(F)c2)ccn1` [Regorafenib (BAY 73-4506)], the “cell viability (kinase inhibitor library screening)” value in [1] (501Mel XP, 1μΜ, 72 h) worked out at 93.6%; in [1] (501Mel XP, 10μΜ, 72 h) it was 47.1%; in experiment [2] (A375 GP, 1μΜ, 72 h), 48.9%; in experiment [2] (A375 GP, 10μΜ, 72 h), 22.9%; in [3] (IGR37 GP, 1μΜ, 72 h) it was 89.9%; in experiment [3] (IGR37 GP, 10μΜ, 72 h) it was 47.7%. Further, the “cell viability (kinase inhibitor library screening)” value in experiment [4] (IGR37 Parental, 1μΜ, 72 h) amounted to 94.8%; in experiment [4] (IGR37 Parental, 10μΜ, 72 h), 42.7%; in [5] (501Mel Parental, 1μΜ, 72 h), 93.5%; in experiment [5] (501Mel Parental, 10μΜ, 72 h), 53.2%; in experiment [6] (A375 XP, 1μΜ, 72 h), 58.9%; in experiment [6] (A375 XP, 10μΜ, 72 h), 18.1%. For the same compound, the “cell viability (kinase inhibitor library screening)” value is listed as 96.7% in [7] (501Mel GP, 1μΜ, 72 h); 48.3% in experiment [7] (501Mel GP, 10μΜ, 72 h); 32.8% in experiment [8] (A375 Parental, 10μΜ, 72 h); 96.5% in experiment [8] (A375 Parental, 1μΜ, 72 h); 88.9% in [9] (IGR37 XP, 1μΜ, 72 h); 14.8% in experiment [9] (IGR37 XP, 10μΜ, 72 h).

Turning to `COc1cc(OC)c(/C=C/S(=O)(=O)Cc2ccc(OC)c(NCC(=O)O)c2)c(OC)c1` [Rigosertib (ON-01910)], in experiment [1] (501Mel XP, 1μΜ, 72 h, in %), the “Cell viability in kinase inhibitor library screening, 501Mel XP, 1μΜ” value is 9.5. The “Cell viability in kinase inhibitor library screening, 501Mel XP, 10μΜ” value in [1] (501Mel XP, 10μΜ, 72 h, in %) was 14.7. Besides, the “Cell viability in kinase inhibitor library screening, A375 GP, 1μΜ” value in [2] (A375 GP, 1μΜ, 72 h) was 19.7. For the same compound, the “Cell viability in kinase inhibitor library screening, A375 GP, 10μΜ” value in experiment [2] (A375 GP, 10μΜ, 72 h) turned out to be 16.9. The same compound showed a Cell viability in kinase inhibitor library screening, IGR37 GP, 10μΜ in [3] (IGR37 GP, 10μΜ, 72 h) of 61.1%. Also, the “Cell viability in kinase inhibitor library screening, IGR37 GP, 1μΜ” value in [3] (IGR37 GP, 1μΜ, 72 h, in %) stood at 62.5. Also, the “Cell viability in kinase inhibitor library screening, IGR37 Parental, 1μΜ” value in [4] (setting [10]) was 11.0. In addition, in experiment [4] (setting [11]), the “Cell viability in kinase inhibitor library screening, IGR37 Parental, 10μΜ” value is 15.4. Also, the “Cell viability in kinase inhibitor library screening, 501Mel Parental, 1μΜ” value in experiment [5] (setting [12]) stood at 20.3. In [5] (setting [13]), the “Cell viability in kinase inhibitor library screening, 501Mel Parental, 10μΜ” value is on record as 26.0. Besides, the “Cell viability in kinase inhibitor library screening, A375 XP, 1μΜ” value in [6] (A375 XP, 1μΜ, 72 h) turned out to be 18.3. Besides, the “Cell viability in kinase inhibitor library screening, A375 XP, 10μΜ” value in experiment [6] (A375 XP, 10μΜ, 72 h) was determined as 9.8. In addition, the “Cell viability in kinase inhibitor library screening, 501Mel GP, 1μΜ” value in [7] (501Mel GP, 1μΜ, 72 h, in %) worked out at 16.6. In experiment [7] (501Mel GP, 10μΜ, 72 h, in %), the “Cell viability in kinase inhibitor library screening, 501Mel GP, 10μΜ” value is on record as 20.3. Moreover, the “Cell viability in kinase inhibitor library screening, A375 Parental, 10μΜ” value in experiment [8] (A375 Parental, 10μΜ, 72 h) is reported as 15.2. In addition, the “Cell viability in kinase inhibitor library screening, A375 Parental, 1μΜ” value in experiment [8] (A375 Parental, 1μΜ, 72 h) was determined as 18.2. The compound also returned a Cell viability in kinase inhibitor library screening, IGR37 XP, 10μΜ in experiment [9] (IGR37 XP, 10μΜ, 72 h) of 35.5%. In addition, in [9] (IGR37 XP, 1μΜ, 72 h, in %), the “Cell viability in kinase inhibitor library screening, IGR37 XP, 1μΜ” value worked out at 55.9.

Consider `CC[C@H](CO)Nc1nc(NCc2ccccc2)c2ncn(C(C)C)c2n1` [Roscovitine (Seliciclib, CYC202)], for which the “cell viability (kinase inhibitor library screening)” value in [1] is 93.6% and 61.7%; in [2], 109.1% and 86.5%; in experiment [3], 93.8% and 90.7%; in experiment [4] it was 85.4% and 104.3%; in experiment [5] it was 95.0% and 93.4%; in experiment [6], 109.6% and 86.5%. The “cell viability (kinase inhibitor library screening)” value in experiment [7] was 85.2%; in experiment [8] it was 90.5%; in experiment [9], 96.5% and 59.2%.
